In brackets after ≈: the same amount, converted by molar mass. Like-named read-outs stand apart in the source and are kept apart here.
Tests used:
[1] = test system: PA 884 35151; assay: MIC assay; type: cell-based; details: read-out: MIC PA 884 35151
[2] = test system: Klebsiella pneumoniae KP153 (tet(A), MDR, ESBL+); assay: microbe, parasite or virus in culture; details: read-out: MIC KP153 tetA
[3] = test system: Klebsiella pneumoniae KP153 (tet(A), MDR, ESBL+)
[4] = test system: Klebsiella pneumoniae KP457 (2009 ESBL+, CTX-M, OXA)
[5] = test system: Klebsiella pneumoniae KP109 (ATCC 13883); assay: MIC assay; type: cell-based
[6] = test system: Staphylococcus aureus SA161 (HA-MRSA, tet(M)); assay: MIC assay; type: cell-based
[7] = test system: PA 689; assay: MIC assay; type: cell-based; details: read-out: MIC PA 689
[8] = test system: Streptococcus pneumoniae SP160 (tet(M)); assay: MIC assay; type: cell-based
[9] = test system: Enterococcus faecium EF404 (blood isolate, tet(M)); assay: MIC assay; type: cell-based; details: read-out: MIC EF 404 tetM, control compounds
[10] = test system: Escherichia coli EC107 (ATCC 25922); assay: MIC assay; type: cell-based; details: ATCC25922, read-out: MIC EC 107 25922, control compounds

| SMILES | MIC ([1]; Table 6, control compounds) | MIC [2] | MIC KP 153 tetA [3] | MIC KP 457 CTX-M-15 [4] | MIC ([5]; ATCC13883, Table 4, control compounds, read-out: MIC KP109 13883) | MIC SA 161 tetM ([6]; control compounds) | MIC ([7]; Table 6, control compounds) | MIC [1] | MIC KP 153 tetA ([3]; Table 5, control compounds) | MIC [7] | MIC KP 457 CTX-M-15 ([4]; Table 6, control compounds) | MIC KP 457 CTX-M-15 ([4]; Table 7, control compounds) | MIC ([8]; read-out: MIC SP 160 tetM, Table 5, control compounds) | MIC ([8]; read-out: MIC SP 160 tetM, control compounds) | MIC ([5]; ATCC13883, read-out: MIC KP109 13883) | MIC ([6]; Staphylococcus aureus, MRSA, read-out: MIC SA 161 tetM, control compounds) | MIC [9] | MIC [10] |
| --- | --- | --- | --- | --- | --- | --- | --- | --- | --- | --- | --- | --- | --- | --- | --- | --- | --- | --- |
| CN(C)c1ccc(O)c2c1C[C@H]1C[C@H]3[C@H](N(C)C)C(O)=C(C(N)=O)C(=O)[C@@]3(O)C(O)=C1C2=O [Minocycline, minocycline] | 1 µg/mL (≈ 2.19 µM) | 8 µg/mL (≈ 17.5 µM) | 8 µg/mL (≈ 17.5 µM) | 8 µg/mL (≈ 17.5 µM) | 1 µg/mL (≈ 2.19 µM) | 8 µg/mL (≈ 17.5 µM) | 8 µg/mL (≈ 17.5 µM) |  |  |  |  |  |  |  |  |  |  |  |
| CN(C)[C@@H]1C(O)=C(C(N)=O)C(=O)[C@@]2(O)C(O)=C3C(=O)c4c(O)cccc4C[C@H]3C[C@@H]12 [Sancycline, sancycline] |  | 32 µg/mL (≈ 77.2 µM) |  | 8 µg/mL (≈ 19.3 µM) |  |  |  | 4 µg/mL (≈ 9.65 µM) | 32 µg/mL (≈ 77.2 µM) | 16 µg/mL (≈ 38.6 µM) |  |  |  |  |  |  |  |  |
| CN(C)c1cc(NC(=O)CNC(C)(C)C)c(O)c2c1C[C@H]1C[C@H]3[C@H](N(C)C)C(O)=C(C(N)=O)C(=O)[C@@]3(O)C(O)=C1C2=O [Tigecycline, tigecycline] |  |  |  |  |  |  |  | 0.063 µg/mL (≈ 0.108 µM) | 1 µg/mL (≈ 1.71 µM) | 1 µg/mL (≈ 1.71 µM) | 1 µg/mL (≈ 1.71 µM) | 1 µg/mL (≈ 1.71 µM) | 0.2 µg/mL (≈ 0.341 µM) | 0.03 µg/mL (≈ 0.0512 µM) | 0.125 µg/mL (≈ 0.213 µM) | 0.1 µg/mL (≈ 0.171 µM) | 0.06 µg/mL (≈ 0.102 µM) | 0.02 µg/mL (≈ 0.0341 µM) |

— US10913712B2, “Tetracycline compounds” (Tetraphase Pharmaceuticals, Inc., priority 2012, dated 2021)
